Test systems include MOLT-4 leukemia; NCI-H460 lung; IGROV1 ovarian; OVCAR-5 ovarian; UACC-257 melanoma; SK-OV-3 ovarian; KM12 colon; OVCAR-8 ovarian; SW-620 colon; A549 NSCLC.
Common to all, as to assay: NCI-60 cell line screen, 48 h

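These data come from cells grown in 96-well plates and exposed to compound for 48 hours at five concentrations. At the GI50, growth is halved. TGI denotes the concentration required for complete inhibition of growth.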 Where a SMILES comes first, the peptide text is derived from it. [ ]: non-standard residue; d: D form. ξ: configuration not given here. Pentanoyl(2-O,4-OH,5-Cl) = O=C(O)C(O)CC(O)CCl; Ile(3ξ) = CCC(C)[C@H](N)C(=O)O; NMeV = CN[C@H](C(=O)O)C(C)C; NMeA = CN[C@@H](C)C(=O)O; βAla = NCCC(=O)O Bounds are passed on as bounds.

On to `COc1ccc(-c2cc(=O)c3c(C)ccnc3[nH]2)cc1`, for which the TGI is 50 µM in the test on MOLT-4 leukemia; more than 100 µM in the test with NCI-H460 lung; more than 100 µM with IGROV1 ovarian; 68.4 µM in the test on OVCAR-5 ovarian; more than 100 µM in the test on UACC-257 melanoma; more than 100 µM in the test on SK-OV-3 ovarian. The TGI in the test on KM12 colon was 23.2 µM; with OVCAR-8 ovarian it was more than 100 µM; with SW-620 colon, more than 100 µM; with A549 NSCLC, more than 100 µM. The GI50 in the test on NCI-H460 lung was 6190 nM.

As to `O=C(c1ccccc1)c1nc2ccc(Cl)cc2cc1C(Br)Br`, the TGI in the test with MOLT-4 leukemia was 11.8 µM; with NCI-H460 lung, 1.31 µM; in the test with IGROV1 ovarian it was 4.38 µM; in the test with OVCAR-5 ovarian, 2 µM; in the test on UACC-257 melanoma, 1.54 µM; with SK-OV-3 ovarian, 2.73 µM. For the same molecule, the TGI came to 1.06 µM in the test on KM12 colon, 1.32 µM in the test on OVCAR-8 ovarian, 0.905 µM with SW-620 colon and 3.31 µM in the test with A549 NSCLC.

On to `CCC(C)[C@@H]1NC(=O)[C@@H]2CCCN2C(=O)C(CC(O)CCl)OC(=O)CCNC(=O)[C@H](C)N(C)C(=O)[C@H](C(C)C)N(C)C1=O` (stereo partly specified) (cyclo([Ile(3ξ)][NMeV][NMeA][βAla][Pentanoyl(2-O,4-OH,5-Cl)]P)), for which the TGI in the test on MOLT-4 leukemia is more than 100 µM; with NCI-H460 lung, more than 100 µM; in the test on IGROV1 ovarian it was more than 100 µM; in the test on OVCAR-5 ovarian, more than 100 µM; in the test with UACC-257 melanoma, more than 86 µM; with SK-OV-3 ovarian it was more than 100 µM. Also, the TGI in the test with KM12 colon, with OVCAR-8 ovarian, in the test on SW-620 colon and with A549 NSCLC was more than 100 µM throughout.

On to `CCCN1CCC(Oc2cc(Nc3nc(Nc4cccc(F)c4C(N)=O)c4cc[nH]c4n3)c(OC)cc2Cl)CC1`, for which the GI50 in the test with MOLT-4 leukemia was 3.48 µM; in the test on NCI-H460 lung, 1450 nM; in the test on IGROV1 ovarian, 3860 nM; in the test on OVCAR-5 ovarian, 3.44 µM; with UACC-257 melanoma, 3.28 µM; in the test with SK-OV-3 ovarian, 4.87 µM. Besides, the GI50 in the test with KM12 colon was 2720 nM; in the test with OVCAR-8 ovarian, 4.11 µM; with SW-620 colon it was 785 nM; with A549 NSCLC, 2640 nM. Moreover, the TGI in the test on MOLT-4 leukemia worked out at 7.97 µM; in the test with NCI-H460 lung it was 4.79 µM; with IGROV1 ovarian, 9.22 µM; in the test on OVCAR-5 ovarian it was 7.27 µM; with UACC-257 melanoma it was 6.75 µM; in the test with SK-OV-3 ovarian it was 14 µM. The TGI with KM12 colon came to 6.11 µM; in the test with OVCAR-8 ovarian it was 9.52 µM; in the test on SW-620 colon, 3.57 µM; in the test with A549 NSCLC, 5.95 µM.

Take `CC1=NC2(C(=O)O)C3(C(=O)O)N=C(C)OC3(C(F)(F)F)C2(C(F)(F)F)O1` (stereo unspecified): the TGI in the test with MOLT-4 leukemia, with NCI-H460 lung, with IGROV1 ovarian, in the test on OVCAR-5 ovarian, in the test on UACC-257 melanoma and with SK-OV-3 ovarian was more than 100 µM in each case. In addition, the TGI in the test with KM12 colon, with OVCAR-8 ovarian, with SW-620 colon and in the test on A549 NSCLC was more than 100 µM in each case.

On to `Clc1cccc(-c2cc(-c3ccc4c(c3)OCCO4)[nH]n2)c1`, for which the GI50 in the test with MOLT-4 leukemia was 3.15 µM; in the test with NCI-H460 lung, 1010 nM; in the test on IGROV1 ovarian it was 2470 nM; in the test on OVCAR-5 ovarian, 10.4 µM; with UACC-257 melanoma, 25.4 µM; in the test with SK-OV-3 ovarian, 5.42 µM. For the same molecule, the GI50 in the test with KM12 colon was 1010 nM; in the test on OVCAR-8 ovarian it was 6.74 µM; in the test with SW-620 colon, 1090 nM; in the test with A549 NSCLC, 1550 nM. Moreover, the TGI with MOLT-4 leukemia amounted to 74.6 µM; in the test with NCI-H460 lung it was 31.8 µM; with IGROV1 ovarian it was 36.7 µM; with OVCAR-5 ovarian, 47.7 µM; in the test with UACC-257 melanoma it was 55.3 µM; in the test with SK-OV-3 ovarian, 46.7 µM. The TGI with KM12 colon was determined as 38.5 µM; in the test with OVCAR-8 ovarian it was 53.3 µM; with SW-620 colon, 44.9 µM; with A549 NSCLC, 44.5 µM.

Consider `CCOc1ccc2c(c1)[n+]([O-])c(-c1ccccc1)c(N)[n+]2[O-]`, for which the TGI with MOLT-4 leukemia, in the test on NCI-H460 lung, with IGROV1 ovarian, in the test on OVCAR-5 ovarian, in the test on UACC-257 melanoma and in the test on SK-OV-3 ovarian was more than 100 µM throughout. Further, the TGI in the test with KM12 colon, in the test with OVCAR-8 ovarian, in the test on SW-620 colon and with A549 NSCLC was more than 100 µM throughout.

On to `CCOP(=O)(OCC)C(C(=O)OC)C(=O)C(=O)Nc1cccc([N+](=O)[O-])c1` (stereo unspecified), for which the TGI with MOLT-4 leukemia, in the test on NCI-H460 lung, with IGROV1 ovarian, in the test with OVCAR-5 ovarian, in the test on UACC-257 melanoma and with SK-OV-3 ovarian was more than 100 µM throughout. In addition, the TGI with KM12 colon, in the test with OVCAR-8 ovarian, in the test on SW-620 colon and with A549 NSCLC was more than 100 µM in each case.

Regarding `CN1CCN(c2cc(F)c(NC3=C(Cl)C(=O)c4ncccc4C3=O)c(F)c2)CC1`, the GI50 in the test with MOLT-4 leukemia is 2.4 µM; in the test on NCI-H460 lung it was 2100 nM; in the test with IGROV1 ovarian, 1530 nM; in the test on OVCAR-5 ovarian, 1.82 µM; in the test with UACC-257 melanoma, 1.43 µM; in the test with SK-OV-3 ovarian it was 14.7 µM. The GI50 was 2010 nM in the test on KM12 colon, 1.86 µM in the test with OVCAR-8 ovarian, 1460 nM with SW-620 colon and 4210 nM in the test on A549 NSCLC. Also, the TGI in the test on MOLT-4 leukemia came to 8.83 µM; with NCI-H460 lung it was 8.49 µM; with IGROV1 ovarian, 3.37 µM; in the test with OVCAR-5 ovarian, 3.6 µM; with UACC-257 melanoma, 2.78 µM; with SK-OV-3 ovarian it was 28.2 µM. Further, the TGI stood at 4.3 µM in the test on KM12 colon, 4 µM in the test on OVCAR-8 ovarian, 3.17 µM with SW-620 colon and 16.3 µM in the test on A549 NSCLC.

For `CN(N=O)C(=O)NC(CCCCNC(=O)OCc1ccccc1)C(=O)OCc1ccccc1` (stereo unspecified), the TGI with MOLT-4 leukemia is 64.9 µM; in the test with NCI-H460 lung, more than 100 µM; in the test with IGROV1 ovarian, more than 100 µM; in the test on OVCAR-5 ovarian it was more than 100 µM; with UACC-257 melanoma it was 33.5 µM; with SK-OV-3 ovarian it was more than 100 µM. Also, the TGI was more than 100 µM with KM12 colon, 36.7 µM in the test with OVCAR-8 ovarian, more than 100 µM in the test on SW-620 colon and more than 100 µM in the test on A549 NSCLC.

These data come from PubChem BioAssay (NCI).
